Series [1] concerns RAW264.7. Put plainly: Cytotoxicity against mouse RAW264.7 cells assessed as reduction in cell viability at 50 uM by MTT assay. Type of series: cell-based. The note with it: raw264.7, 50 µM.
Series [2] deals with RAW264.7. Put plainly: Antiinflammatory activity against mouse RAW264.7 cells assessed as inhibition of LPS-induced NO production incubated for 24 hrs by Griess reagent-based assay. Type of series: functional, cell-based. The note with it: RAW264.7, 24 h.
The subject of series [3] is RAW264.7. The series is described as follows: Antiinflammatory activity against mouse RAW264.7 cells assessed as inhibition of LPS-induced TNF-alpha secretion after 24 hrs by ELISA. The class given is functional, cell-based. Conditions: RAW264.7, 24 h. (In an ELISA, binding on a coated surface is turned into a signal by an enzyme label.)
The test system of series [4] is RAW264.7. Put plainly: Antiinflammatory activity against mouse RAW264.7 cells assessed as inhibition of LPS-induced IL-6 secretion after 24 hrs by ELISA. The note with it: RAW264.7, 24 h. Type of series: functional, cell-based.

Bounds are passed on as bounds.

In general, IC50 refers to the concentration that gives 50% inhibition. Regarding `COc1ccc([C@H](/C=C/c2ccc(O)cc2)c2cc(-c3coc4cc(OC)cc(O)c4c3=O)c(O)cc2O)c(OC)c1`, the Activity entry in series [1] was “Non-Toxic”. The IC50 in series [2] is 25.7 µM; in series [3] it was 11.4 µM; in series [4] it was above 50 µM.
Turning to `COc1ccc(/C=C/[C@H](c2ccc(O)cc2)c2cc(-c3coc4cc(OC)cc(O)c4c3=O)c(O)cc2O)c(OC)c1`, the Activity entry in series [1] is “Non-Toxic”. Also, the IC50 turned out to be 4.1 µM in series [2], 20.5 µM in series [3] and 32.6 µM in series [4].
`C[C@H]1[C@H](C)CC[C@]2(C=O)CC[C@]3(C)C(=CC[C@@H]4[C@@]5(C)CC[C@H](O)C(C)(C)[C@@H]5CC[C@]43C)[C@H]12` [OLEANOALDEHYDE]: the Activity entry in series [1] is recorded as “Non-Toxic”. Also, the IC50 in series [2] worked out at 18.6 µM.
For the compound `C[C@@H]1C[C@H]2[C@@H]3CCC4=CC(=O)C=C[C@]4(C)[C@@]3(F)[C@@H](O)C[C@]2(C)[C@@]1(O)C(=O)CO` [DEXAMETHASONE], the results for the IC50 in series [2], in series [3] and in series [4] were 6 µM, 6.1 µM and 8.4 µM, respectively.
Consider `COc1ccc2c(c1)O[C@@]1(/C=C/c3ccc(O)cc3)c3ccc(OC)cc3O[C@H]2[C@H]1Cc1ccc(O)cc1`, for which, in series [1], the Activity entry is reported as “Non-Toxic”. Besides, the IC50 was 5.2 µM in series [2], 14.7 µM in series [3] and 26.8 µM in series [4].
On the same counts, the results for `COc1ccc2c(c1)O[C@@H](c1ccc(OC)cc1OC)[C@H](Cc1ccc(O)cc1)[C@H]2/C=C/c1ccc(O)cc1` are “Non-Toxic”, 25.6 µM, 26.7 µM and 31.4 µM.

The values are drawn from ChEMBL document CHEMBL4414604, “Anti-inflammatory Chalcone-Isoflavone Dimers and Chalcone Dimers from Caragana jubata” (J Nat Prod, 2019).
